Results taken from PubChem BioAssay (NCI).
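Cultured in 96-well plates, cells were exposed to test compound for 48 hours across five concentrations. GI50 is the concentration that inhibits growth by half. TGI denotes the concentration required for complete inhibition of growth.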

Tests used:
Test in all cases: DTP human tumour cell line panel, 48 h
[1] = tested on: SNB-75 CNS
[2] = tested on: MOLT-4 leukemia
[3] = tested on: OVCAR-3 ovarian
[4] = tested on: K-562 leukemia
[5] = tested on: SF-295 CNS
[6] = tested on: COLO 205 colon
[7] = tested on: UACC-62 melanoma
[8] = tested on: NCI-H23 lung
[9] = tested on: HS 578T breast
[10] = tested on: SK-OV-3 ovarian
[11] = tested on: RPMI-8226 leukemia
[12] = tested on: MDA-MB-435
[13] = tested on: PC-3 prostate
[14] = tested on: HCC-2998 colon
[15] = tested on: SNB-19 CNS
[16] = tested on: MALME-3M melanoma
[17] = tested on: OVCAR-4 ovarian
[18] = tested on: HCT-15 colon
[19] = tested on: SF-268 CNS
[20] = tested on: SF-539 CNS
[21] = tested on: HOP-62 NSCLC
[22] = tested on: MDA-MB-468 breast
[23] = tested on: ACHN renal
[24] = tested on: HCT-116 colon
[25] = tested on: HL-60(TB) leukemia
[26] = tested on: SW-620 colon
[27] = tested on: EKVX NSCLC
[28] = tested on: SN12C renal
[29] = tested on: A549 NSCLC
[30] = tested on: HOP-92 NSCLC
[31] = tested on: 786-0 renal
[32] = tested on: KM12 colon
[33] = tested on: CAKI-1 renal
[34] = tested on: LOX IMVI melanoma
[35] = tested on: CCRF-CEM leukemia
[36] = tested on: SR leukemia
[37] = tested on: OVCAR-8 ovarian
[38] = tested on: DU-145 prostate
[39] = tested on: HT29 colon
[40] = tested on: BT-549 breast
[41] = tested on: OVCAR-5 ovarian
[42] = tested on: RXF 393 renal
[43] = tested on: NCI-H522 lung
[44] = tested on: SK-MEL-2 melanoma
[45] = tested on: T-47D breast
[46] = tested on: M14 melanoma

CN1CCN(C(=O)Oc2cc3c(c4ccccc24)[C@H](CCl)CN3C(=O)c2cc3cc(OCCCN4CCC4)ccc3[nH]2)[C@@H]2CSSC[C@H]21
GI50 [1]: 0.0197 µM | TGI [1]: 0.075 µM | GI50 [2]: 0.00445 µM | TGI [2]: 0.223 µM | GI50 [3]: 0.0274 µM | TGI [3]: > 10 µM | GI50 [4]: 0.0044 µM | TGI [4]: > 10 µM | GI50 [5]: 0.00225 µM | TGI [5]: 0.00682 µM | GI50 [6]: 0.0148 µM | TGI [6]: 0.0338 µM | GI50 [7]: 0.0022 µM | TGI [7]: 0.0105 µM | GI50 [8]: 0.00174 µM | TGI [8]: 0.00541 µM | GI50 [9]: 0.0279 µM | TGI [9]: 0.124 µM | GI50 [10]: 0.015 µM | TGI [10]: > 10 µM | GI50 [11]: 0.0232 µM | TGI [11]: 1.84 µM | GI50 [12]: 0.0127 µM | TGI [12]: 0.0381 µM | GI50 [13]: 0.0197 µM | TGI [13]: 0.981 µM | GI50 [14]: 0.00347 µM | TGI [14]: 0.0152 µM | GI50 [15]: 0.00579 µM | TGI [15]: 0.0762 µM | GI50 [16]: 0.00637 µM | TGI [16]: 0.02 µM | GI50 [17]: 0.0275 µM | TGI [17]: 0.0934 µM | GI50 [18]: 0.00382 µM | TGI [18]: 0.0242 µM | GI50 [19]: 0.00899 µM | TGI [19]: 0.293 µM | GI50 [20]: 0.00525 µM | TGI [20]: 0.021 µM | GI50 [21]: 0.00517 µM | TGI [21]: 0.0601 µM | GI50 [22]: 0.00255 µM | TGI [22]: 0.00792 µM | GI50 [23]: 0.00237 µM | TGI [23]: 0.00723 µM | GI50 [24]: 0.00675 µM | TGI [24]: > 10 µM | GI50 [25]: 0.00994 µM | TGI [25]: 0.321 µM | GI50 [26]: 0.00228 µM | TGI [26]: 1.48 µM | GI50 [27]: 0.0122 µM | TGI [27]: 0.0406 µM | GI50 [28]: 0.0105 µM | TGI [28]: 0.0986 µM | GI50 [29]: 0.00179 µM | TGI [29]: > 10 µM | GI50 [30]: 0.0182 µM | TGI [30]: 0.0629 µM | GI50 [31]: 0.0131 µM | TGI [31]: 0.04 µM | GI50 [32]: 0.0157 µM | TGI [32]: 1.52 µM | GI50 [33]: 0.00282 µM | TGI [33]: > 10 µM | GI50 [34]: 0.0022 µM | TGI [34]: 0.0158 µM | GI50 [35]: 0.00741 µM | TGI [35]: 3.32 µM | GI50 [36]: 0.00168 µM | TGI [36]: 0.0392 µM | GI50 [37]: 0.00329 µM | TGI [37]: 0.129 µM | GI50 [38]: 0.00391 µM | TGI [38]: 2.44 µM | GI50 [39]: 0.00829 µM | TGI [39]: > 10 µM | GI50 [40]: 0.0213 µM | TGI [40]: 0.0818 µM | GI50 [41]: 0.00688 µM | TGI [41]: 0.0408 µM | GI50 [42]: 0.00566 µM | TGI [42]: 0.019 µM | GI50 [43]: 0.0109 µM | TGI [43]: 0.0354 µM | GI50 [44]: 0.0187 µM | TGI [44]: 0.0352 µM | GI50 [45]: 0.0148 µM | TGI [45]: > 10 µM | GI50 [46]: 0.00563 µM | TGI [46]: 0.0212 µM
